Results taken from ChEMBL document CHEMBL1143418, “Colistin methanesulfonate against multidrug-resistant Acinetobacter baumannii in an in vitro pharmacodynamic model” (2007).
Values after ≈ are worked out from the molar mass of the structure shown. Active and inactive are the calls of the source. The calls are words filed in the database; no cut-off is given here.

Key:
[1] = system: Acinetobacter baumannii; assay: Antibacterial activity against multidrug-resistant Acinetobacter baumannii 06-74 isolate by CLSI microdilution test; assay type: functional
[2] = system: Acinetobacter baumannii; assay: Antibacterial activity against multidrug-resistant Acinetobacter baumannii 06-74 isolate assessed as reduction in bacterial load at 50 ug/ml administered as continuous infusion in vitro pharmacodynamic model after 3 to 4 hrs by time kill experiment; assay type: functional
[3] = system: Acinetobacter baumannii; assay: Antibacterial activity against multidrug-resistant Acinetobacter baumannii 06-74 isolate assessed as regrowth bacterial load at 50 ug/ml administered as continuous infusion in vitro pharmacodynamic model after 3 to 4 hrs by time kill experiment; assay type: functional
[4] = system: Acinetobacter baumannii; assay: Antibacterial activity against multidrug-resistant Acinetobacter baumannii 06-74 isolate by time kill experiment; assay type: functional, organism-based
[5] = system: Acinetobacter baumannii; assay: (§1) Antibacterial activity against multidrug-resistant Acinetobacter baumannii 06-74 isolate assessed as prevention of bacterial regrowth at 24 ug/ml first dose and 24 ug/ml of second dose administered 12 hrs after first dose as bolus dose in in vitro pharmacodynamic model vessel measured 2 to 3 hrs after last dose by time kill experiment; assay type: functional, organism-based
[6] = system: Acinetobacter baumannii; assay: Antibacterial activity against 24 ug/mL bolus dose Colistin methanesulfonate exposed multidrug-resistant Acinetobacter baumannii 06-74 isolate by CLSI microdilution test; assay type: functional, organism-based
[7] = system: Acinetobacter baumannii; assay: Antibacterial activity against 3 ug/mL Colistin methanesulfonate exposed multidrug-resistant Acinetobacter baumannii 06-74 isolate by CLSI microdilution test; assay type: functional, organism-based
[8] = system: Acinetobacter baumannii; assay: Antibacterial activity against 6 ug/mL Colistin methanesulfonate exposed multidrug-resistant Acinetobacter baumannii 06-74 isolate by CLSI microdilution test; assay type: functional, organism-based
[9] = system: Acinetobacter baumannii; assay: Antibacterial activity against 12 ug/mL Colistin methanesulfonate exposed multidrug-resistant Acinetobacter baumannii 06-74 isolate by CLSI microdilution test; assay type: functional, organism-based
[10] = system: Acinetobacter baumannii; assay: Antibacterial activity against 24 ug/mL Colistin methanesulfonate exposed multidrug-resistant Acinetobacter baumannii 06-74 isolate by CLSI microdilution test; assay type: functional, organism-based
[11] = system: Acinetobacter baumannii; assay: Antibacterial activity against multidrug-resistant Acinetobacter baumannii 06-74 isolate assessed as reduction in bacterial load at 3 ug/ml administered as bolus dose after 2 to 3 hrs by time kill experiment; assay type: functional, organism-based
[12] = system: Acinetobacter baumannii; assay: Antibacterial activity against multidrug-resistant Acinetobacter baumannii 06-74 isolate assessed as reduction in bacterial load at 6 ug/ml administered as bolus dose after 2 to 3 hrs by time kill experiment; assay type: functional, organism-based
[13] = system: Acinetobacter baumannii; assay: Antibacterial activity against multidrug-resistant Acinetobacter baumannii 06-74 isolate assessed as reduction in bacterial load at 12 ug/ml administered as bolus dose after 2 to 3 hrs by time kill experiment; assay type: functional, organism-based
[14] = system: Acinetobacter baumannii; assay: Antibacterial activity against multidrug-resistant Acinetobacter baumannii 06-74 isolate assessed as reduction in bacterial load at 24 ug/ml administered as bolus dose after 2 to 3 hrs by time kill experiment; assay type: functional, organism-based
[15] = system: Acinetobacter baumannii; assay: Antibacterial activity against multidrug-resistant Acinetobacter baumannii 06-74 isolate assessed as regrowth bacterial load at 3 ug/ml administered as bolus dose after 24 hrs by time kill experiment; assay type: functional, organism-based
[16] = system: Acinetobacter baumannii; assay: Antibacterial activity against multidrug-resistant Acinetobacter baumannii 06-74 isolate assessed as regrowth bacterial load at 6 ug/ml administered as bolus dose after 24 hrs by time kill experiment; assay type: functional, organism-based
[17] = system: Acinetobacter baumannii; assay: Antibacterial activity against multidrug-resistant Acinetobacter baumannii 06-74 isolate assessed as regrowth bacterial load at 12 ug/ml administered as bolus dose after 24 hrs by time kill experiment; assay type: functional, organism-based
[18] = system: Acinetobacter baumannii; assay: Antibacterial activity against multidrug-resistant Acinetobacter baumannii 06-74 isolate assessed as regrowth bacterial load at 24 ug/ml administered as bolus dose after 24 hrs by time kill experiment; assay type: functional, organism-based
[19] = system: Acinetobacter baumannii; assay: as §1, with “as reduction in” for “as prevention of”, “bacterial load” for “bacterial regrowth”, “at 3” for “at 24”; assay type: functional, organism-based
[20] = system: Acinetobacter baumannii; assay: as §1, with “as reduction in” for “as prevention of”, “bacterial load” for “bacterial regrowth”, “at 6” for “at 24”; assay type: functional, organism-based
[21] = system: Acinetobacter baumannii; assay: as §1, with “as reduction in” for “as prevention of”, “bacterial load” for “bacterial regrowth”, “at 12” for “at 24”; assay type: functional, organism-based
[22] = system: Acinetobacter baumannii; assay: as §1, with “reduction in” for “prevention of”, “load” for “regrowth”; assay type: functional, organism-based
[23] = system: Acinetobacter baumannii; assay: as §1, with “at 3” for “at 24”; assay type: functional, organism-based
[24] = system: Acinetobacter baumannii; assay: as §1, with “at 6” for “at 24”; assay type: functional, organism-based
[25] = system: Acinetobacter baumannii; assay: as §1, with “at 12” for “at 24”; assay type: functional, organism-based

O=C1CN(/N=C/c2ccc([N+](=O)[O-])o2)C(=O)N1 [NITROFURANTOIN]
MIC [1]: ≥ 512 µg/mL

C[C@@H](O)[C@H]1C(=O)N2C(C(=O)O)=C(S[C@@H]3CN[C@H](C(=O)N(C)C)C3)[C@H](C)[C@H]12 [MEROPENEM]
MIC [1]: 1 µg/mL (≈ 2.61 µM)

NCC[C@H](O)C(=O)N[C@@H]1C[C@H](N)[C@@H](O[C@H]2O[C@H](CN)[C@@H](O)[C@H](O)[C@H]2O)[C@H](O)[C@H]1O[C@H]1O[C@H](CO)[C@@H](O)[C@H](N)[C@H]1O [AMIKACIN]
MIC [1]: ≤ 2 µg/mL

CC(C)(O/N=C(\C(=O)N[C@@H]1C(=O)N2C(C(=O)[O-])=C(C[n+]3ccccc3)CS[C@H]12)c1csc(N)n1)C(=O)O [CEFTAZIDIME]
log10CFU/ml [2]: 3 | log10CFU/ml [3]: 6.5 | MIC [1]: ≥ 64 µg/mL

CC1(C)S[C@@H]2[C@H](NC(=O)[C@H](N)c3ccccc3)C(=O)N2[C@H]1C(=O)O [AMPICILLIN]
MIC [1]: ≥ 32 µg/mL

COLISTIMETHATE SODIUM
MIC [4]: > 2.05 mg/mL | MIC [1]: 2 µg/mL

COLISTIN
Activity [5]: inactive | Activity [2]: inactive | Activity [3]: inactive | MIC [6]: > 128 µg/mL | MIC [7]: 64 µg/mL | MIC [8]: > 64 µg/mL | MIC [9]: 128 µg/mL | MIC [10]: > 32 µg/mL | log10CFU/ml [11]: 3 | log10CFU/ml [12]: 3 | log10CFU/ml [13]: 3 | log10CFU/ml [14]: 3 | log10CFU/ml [15]: 7 | log10CFU/ml [16]: 7 | log10CFU/ml [17]: 7 | log10CFU/ml [18]: 7 | Activity [19]: inactive | Activity [20]: inactive | Activity [21]: inactive | Activity [22]: inactive | Activity [23]: inactive | Activity [24]: inactive | Activity [25]: inactive

GENTAMICIN
MIC [1]: > 16 µg/mL

C[C@@H](O)[C@H]1C(=O)N2C(C(=O)O)=C(SCCNC=N)C[C@H]12 [IMIPENEM ANHYDROUS]
MIC [1]: ≤ 1 µg/mL

C[C@H]1COc2c(N3CCN(C)CC3)c(F)cc3c(=O)c(C(=O)O)cn1c23.C[C@H]1COc2c(N3CCN(C)CC3)c(F)cc3c(=O)c(C(=O)O)cn1c23.O [LEVOFLOXACIN]
MIC [1]: ≥ 8 µg/mL
